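96-well plates; 48 h exposure; 5 concentrations. Endpoints by linear interpolation between flanking doses. Not reached: highest tested concentration assigned. GI50 is the concentration that inhibits growth by half.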 Activity calls are given as the source filed them. Cut-off read from the data, not from the text of the source: active = GI50 up to about 1.1 µM and inactive = higher.
Assays:
Assay in all cases: growth of human tumour cells (NCI), 48 h
[1] = tested on: OVCAR-5
[2] = tested on: SK-MEL-28
[3] = tested on: EKVX
[4] = tested on: HCC 2998
[5] = tested on: 786-0
[6] = tested on: Malme-3M
[7] = tested on: NCI/ADR-RES
[8] = tested on: T47D
[9] = tested on: TK-10
[10] = tested on: MDA-MB-435
[11] = tested on: SR
[12] = tested on: SK-MEL-5
[13] = tested on: SN12C
[14] = tested on: SK-MEL-2
[15] = tested on: OVCAR-4
[16] = tested on: OVCAR-3
[17] = tested on: IGROV-1
[18] = tested on: M14
[19] = tested on: LOX IMVI
[20] = tested on: HOP-92

Measured: GI50

CCCNC(=S)N/N=C(\C)c1ccc(S(=O)(=O)N(C)c2ccccc2)cc1
inactive: [1] > 67.6 µM | [2] > 100 µM | [3] 37.8 µM | [4] > 100 µM | [5] 19.3 µM | [6] > 100 µM | [7] > 89.3 µM | [8] > 67.3 µM | [9] 25.5 µM | [10] > 100 µM | [11] 49.5 µM | [12] > 100 µM | [13] > 100 µM | [14] 40.8 µM | [15] > 67.6 µM | [16] > 59.2 µM | [17] 22.1 µM | [18] > 29.1 µM | [19] > 100 µM | [20] 20.4 µM

O=C1OCN(c2ccccc2)C12CCN(Cc1ccccc1)CC2
inactive: [1] > 100 µM | [2] 19.3 µM | [3] > 100 µM | [4] 6.62 µM | [5] 26.8 µM | [6] 18.1 µM | [7] 50.4 µM | [8] 23 µM | [9] 32.8 µM | [10] 17.1 µM | [11] 34.4 µM | [12] 19.5 µM | [13] 42.6 µM | [14] 25.8 µM | [15] 35.8 µM | [16] > 10 µM | [17] 59.8 µM | [18] 18.2 µM | [19] 14.6 µM | [20] 39.3 µM

Clc1cc(OC23CC4CC(CC(C4)C2)C3)nc(Cl)n1
inactive: [1] > 100 µM | [2] 43.2 µM | [3] 37.5 µM | [4] 12.9 µM | [5] > 100 µM | [6] > 100 µM | [7] > 100 µM | [8] > 100 µM | [9] > 100 µM | [10] 39.2 µM | [11] 19.8 µM | [12] 38.8 µM | [13] > 100 µM | [14] 29.6 µM | [15] 40.9 µM | [16] 39.2 µM | [17] 27.2 µM | [18] 29.9 µM | [19] 17 µM | [20] 1.7 µM

COc1ccccc1/N=N/C(=N\NC(=O)c1ccc(C)cc1)c1ccc(N(CCC#N)CCC#N)cc1C
inactive: [1] > 100 µM | [2] > 100 µM | [3] > 100 µM | [4] 42.6 µM | [5] 70.3 µM | [6] 25.4 µM | [7] 63 µM | [8] 20.8 µM | [9] > 100 µM | [10] 39.5 µM | [11] 29.3 µM | [12] 20.8 µM | [13] 39.4 µM | [14] 36.4 µM | [15] 43.6 µM | [16] 18.7 µM | [17] 33.7 µM | [18] 38.2 µM | [19] 40.9 µM | [20] > 100 µM

C/C=C1/CN2CCC34C5=CC(=O)C(c6cc7c(cc6OC)N(C)C6=C(C(=O)OC)CC8(CC)CCCN9CCC67C98)=CC5=NC23CCC1C4C(=O)OC (stereo not given)
inactive: [1] 12.2 µM | [2] 16.8 µM | [3] 13.8 µM | [4] 15.7 µM | [5] 12.1 µM | [6] 15 µM | [7] 18.8 µM | [8] 15.1 µM | [9] 17 µM | [10] 13 µM | [11] 2.73 µM | [12] 15.2 µM | [13] 14.5 µM | [14] 16.5 µM | [15] 14 µM | [16] 14.3 µM | [17] 17.9 µM | [18] 12.3 µM | [19] 16.7 µM | [20] 7.85 µM
